Common to all, as to assay type: cell-based
Test [1] deals with Enterococcus faecium ATCC 8043. In words: In vitro antibacterial activity, agar dilution MIC. The method, then:
(§1) The antimicrobial spectra of a number of compounds of the invention were tested by the following method:
(§2) Twelve petri dishes containing successive aqueous dilutions of the test compound mixed with 10 ml of sterilized Brain Heart Infusion agar (Difco 0418-01-5) are prepared. Each plate is inoculated with 1:100 (or 1:10 for slow growing strains, primarily Micrococcus and Streptococcus) dilutions of up to 32 different microorganisms, using a Steers replicator block The inoculated plates are incubated at 35°-37° C. for 20-24 hours. In addition, a control plate, using BHI agar containing no test compound, is prepared and incubated at the beginning and end of each test.
(§3) An additional plate containing a compound having known susceptibility patterns for the organisms being tested and belonging to the same antibiotic class as the test compound is also prepared and incubated as a further control, as well as to provide test-to-test comparability. Erythromycin A was used for this purpose.
(§4) After incubation, each disk is read. The MIC is defined as the lowest concentration of drug yielding no growth, a slight haze, or sparsely isolated colonies on the inoculum spot as compared to the growth control.

The subject of the next test is Escherichia coli DC-2. Description: In vitro antibacterial activity, agar dilution MIC. To be noted: DC2. The method, then:
as §1, §2, §3, §4
For orientation: Agar dilution tests growth on a series of plates holding different concentrations.

The next test has as its system Escherichia coli H560. In words: In vitro antibacterial activity, agar dilution MIC. The method, then:
as §1, §2, §3, §4

A further test has as its system Escherichia coli Juhl. Description: In vitro antibacterial activity, agar dilution MIC. The procedure: as §1, §2, §3, §4
The test system of a further test is Escherichia coli SS. In words: In vitro antibacterial activity, agar dilution MIC. The procedure: as §1, §2, §3, §4
For test [2], the system named is Micrococcus luteus ATCC 4698. In words: In vitro antibacterial activity, agar dilution MIC. The procedure: as §1, §2, §3, §4
For test [3], the system named is Micrococcus luteus ATCC 9341. In words: In vitro antibacterial activity, agar dilution MIC. The procedure: as §1, §2, §3, §4
The next test concerns Staphylococcus aureus 45. In words: In vitro antibacterial activity, agar dilution MIC. The procedure:
as §1, §2, §3, §4

For test [4], the system named is Staphylococcus aureus 642A. In words: In vitro antibacterial activity, agar dilution MIC. The method, then:
as §1, §2, §3, §4

The test system of test [5] is Staphylococcus aureus A5177. Description: In vitro antibacterial activity, agar dilution MIC. The procedure:
as §1, §2, §3, §4

For test [6], the system named is Staphylococcus aureus ATCC 6538P. In words: In vitro antibacterial activity, agar dilution MIC. The conditions noted are these: ATCC6538P. The method, then:
as §1, §2, §3, §4

The subject of test [7] is Staphylococcus aureus CMX 553. In words: In vitro antibacterial activity, agar dilution MIC. The procedure:
as §1, §2, §3, §4

In test [8] the test system is Staphylococcus aureus NCTC 10649. In words: In vitro antibacterial activity, agar dilution MIC. The procedure:
as §1, §2, §3, §4

For test [9], the system named is Staphylococcus epidermidis 3519. Description: In vitro antibacterial activity, agar dilution MIC. The method, then:
as §1, §2, §3, §4

Test [10] deals with Streptococcus agalactiae CMX 508. Description: In vitro antibacterial activity, agar dilution MIC. The method, then:
as §1, §2, §3, §4

Test [11] has as its system Streptococcus bovis A5169. In words: In vitro antibacterial activity, agar dilution MIC. The procedure: as §1, §2, §3, §4
The test system of test [12] is Streptococcus pyogenes 930 CONST. Description: In vitro antibacterial activity, agar dilution MIC. The conditions noted are these: 930CONST. The procedure:
as §1, §2, §3, §4

Test [13] deals with Streptococcus pyogenes EES61. In words: In vitro antibacterial activity, agar dilution MIC. The procedure:
as §1, §2, §3, §4

Test [14] deals with Staphylococcus aureus 45 RAR 2. In words: microbe, parasite or virus in culture. To be noted: 45RAR2. The procedure: as §1, §2, §3, §4
Test [15] has as its system Staphylococcus aureus CMX 503A. Description: In vitro antibacterial activity, agar dilution MIC. The conditions noted are these: CMX503A. The method, then: as §1, §2, §3, §4
Test [16] concerns Streptococcus pyogenes 2548 INDUC. Description: In vitro antibacterial activity, agar dilution MIC. The procedure: as §1, §2, §3, §4
Where [17] appears, read: ATCC9341, M. luteus ATCC 9341, Brain Heart Infusion agar, 20-24 hours, read-out: MIC.
Setting [18] is: S. aureus A5177, Brain Heart Infusion agar, 20-24 hours, read-out: MIC.
Where [19] appears, read: CMX508, S. agalactiae CMX 508, Brain Heart Infusion agar, 20-24 hours, read-out: MIC.
Setting [20] is: S. pyogenes EES61, Brain Heart Infusion agar, 20-24 hours, read-out: MIC.

Converted amounts (≈) assume the structure as drawn. Like-named read-outs stand apart in the source and are kept apart here.

This is an account of results in patent US5075289A, “9-R-azacyclic erythromycin antibiotics” (priority 1988, dated 1991).

On to `CC[C@H]1OC(=O)[C@H](C)[C@@H](O[C@H]2C[C@@](C)(OC)[C@@H](O)[C@H](C)O2)[C@H](C)[C@@H](O[C@@H]2O[C@H](C)C[C@H](N(C)C)[C@H]2O)[C@](C)(O)C[C@@H](C)[C@@H](N2CCCC(C)(C)C2)[C@H](C)[C@@H](O)[C@]1(C)O` [Example 1], for which the MIC was found to be 0.1 mg/L (≈ 0.12 µM) in [1] (ATCC8043); 50 mg/L (≈ 60.2 µM) with Escherichia coli DC-2; 6.2 mg/L (≈ 7.46 µM) with Escherichia coli H560 (H560); 25 mg/L (≈ 30.1 µM) with Escherichia coli Juhl; 0.2 mg/L (≈ 0.241 µM) in the test with Escherichia coli SS (read-out: MIC); 0.1 mg/L (≈ 0.12 µM) in test [2] (ATCC4698). Moreover, the MIC turned out to be 0.05 mg/L (≈ 0.0602 µM) in [3] (setting [17]); 0.39 mg/L (≈ 0.469 µM) with Staphylococcus aureus 45 (45); 0.78 mg/L (≈ 0.938 µM) in test [4] (S. aureus 642A, Brain Heart Infusion agar, 20-24 hours, read-out: MIC); 6.2 mg/L (≈ 7.46 µM) in [5] (setting [18]); 0.39 mg/L (≈ 0.469 µM) in test [6]; 0.78 mg/L (≈ 0.938 µM) in [7] (CMX553, S. aureus CMX 553, Brain Heart Infusion agar, 20-24 hours, read-out: MIC). The MIC is 0.78 mg/L (≈ 0.938 µM) in test [8] (NCTC10649, S. aureus NCTC 10649, Brain Heart Infusion agar, 20-24 hours, read-out: MIC); 0.78 mg/L (≈ 0.938 µM) in test [9] (S. epidermidis 3519, Brain Heart Infusion agar, 20-24 hours, read-out: MIC); 0.1 mg/L (≈ 0.12 µM) in test [10] (setting [19]); 0.02 mg/L (≈ 0.0241 µM) in test [11] (read-out: MIC); greater than 100 mg/L in [12]; 0.1 mg/L (≈ 0.12 µM) in [13] (setting [20]). Also, in test [14], the MIC was 0.78 mg/L (≈ 0.938 µM).
As for `CC[C@H]1OC(=O)[C@H](C)[C@@H](O[C@H]2C[C@@](C)(OC)[C@@H](O)[C@H](C)O2)[C@H](C)[C@@H](O[C@@H]2O[C@H](C)C[C@H](N(C)C)[C@H]2O)[C@](C)(O)C[C@@H](C)[C@@H](N2CCCCCC2)[C@H](C)[C@@H](O)[C@]1(C)O` [Example 2], the MIC in test [1] (ATCC8043, E. faecium ATCC 8043, Brain Heart Infusion agar, 20-24 hours, read-out: MIC) is 0.02 mg/L (≈ 0.0245 µM); against Escherichia coli DC-2, 12.5 mg/L (≈ 15.3 µM); with Escherichia coli H560 (E. coli H560, Brain Heart Infusion agar, 20-24 hours, read-out: MIC), 3.1 mg/L (≈ 3.79 µM); in the test on Escherichia coli Juhl (E. coli Juhl, Brain Heart Infusion agar, 20-24 hours, read-out: MIC) it was 0.1 mg/L (≈ 0.122 µM); in the test with Escherichia coli SS (E. coli SS, Brain Heart Infusion agar, 20-24 hours, read-out: MIC), 0.1 mg/L (≈ 0.122 µM); in test [2] (ATCC4698, M. luteus ATCC 4698, Brain Heart Infusion agar, 20-24 hours, read-out: MIC), 0.1 mg/L (≈ 0.122 µM). In addition, the MIC was found to be 0.005 mg/L (≈ 0.00612 µM) in test [3] (setting [17]); 0.2 mg/L (≈ 0.245 µM) with Staphylococcus aureus 45 (S. aureus 45, Brain Heart Infusion agar, 20-24 hours, read-out: MIC); 0.39 mg/L (≈ 0.477 µM) in test [4] (642A); 0.31 mg/L (≈ 0.379 µM) in test [5] (setting [18]); 0.39 mg/L (≈ 0.477 µM) in [6]; 0.39 mg/L (≈ 0.477 µM) in test [15]. The MIC was determined as 0.39 mg/L (≈ 0.477 µM) in test [7] (CMX553); 0.39 mg/L (≈ 0.477 µM) in test [8] (NCTC10649); 0.39 mg/L (≈ 0.477 µM) in test [9] (3519); 0.05 mg/L (≈ 0.0612 µM) in [10] (setting [19]); 0.02 mg/L (≈ 0.0245 µM) in [11] (S. bovis A5169, Brain Heart Infusion agar, 20-24 hours, read-out: MIC); 12.5 mg/L (≈ 15.3 µM) in test [16] (S. pyogenes 2548 INDUC, Brain Heart Infusion agar, 20-24 hours, read-out: MIC). Besides, the MIC is greater than 100 mg/L in test [12], 0.05 mg/L (≈ 0.0612 µM) in test [13] (setting [20]) and 0.39 mg/L (≈ 0.477 µM) in [14].
As for `CC[C@H]1OC(=O)[C@H](C)[C@@H](O[C@H]2C[C@@](C)(OC)[C@@H](O)[C@H](C)O2)[C@H](C)[C@@H](O[C@@H]2O[C@H](C)C[C@H](N(C)C)[C@H]2O)[C@](C)(O)C[C@@H](C)[C@@H](N2CC2)[C@H](C)[C@@H](O)[C@]1(C)O` [Example 4], the MIC was 0.2 mg/L (≈ 0.263 µM) in test [1] (ATCC8043); 100 mg/L (≈ 131 µM) against Escherichia coli DC-2; 25 mg/L (≈ 32.9 µM) against Escherichia coli H560 (H560); greater than 100 mg/L against Escherichia coli Juhl; 0.78 mg/L (≈ 1.02 µM) in the test on Escherichia coli SS; 0.78 mg/L (≈ 1.02 µM) in test [2] (ATCC4698). For the same compound, the MIC in [3] (ATCC9341) is 0.1 mg/L (≈ 0.131 µM); with Staphylococcus aureus 45 (45), 0.78 mg/L (≈ 1.02 µM); in [4] (642A), 1.56 mg/L (≈ 2.05 µM); in test [5] (A5177), 6.2 mg/L (≈ 8.15 µM); in test [6] it was 1.56 mg/L (≈ 2.05 µM); in [7] (CMX553) it was 1.56 mg/L (≈ 2.05 µM). For the same compound, the MIC in test [8] (NCTC10649) is 1.56 mg/L (≈ 2.05 µM); in [9] (3519), 1.56 mg/L (≈ 2.05 µM); in [10] (CMX508), 0.2 mg/L (≈ 0.263 µM); in test [11], 0.1 mg/L (≈ 0.131 µM); in [16] (2548INDUC), 12.5 mg/L (≈ 16.4 µM); in [12], greater than 100 mg/L. In addition, the MIC in test [13] (EES61) was 0.2 mg/L (≈ 0.263 µM); in test [14] it was 1.56 mg/L (≈ 2.05 µM).
